Measurements: US20250188618A1, “AMINO ACID DERIVATIVES AND SULFUR DERIVATIVES AS BIODEGRADABLE CORROSION INHIBITORS” (ChampionX LLC, priority 2023, published 2025)

Experiments:
[1] = Bubble cell test, corrosion rate by linear polarization resistance (LPR); settings: during 2 hour pre-corrode, prior to the addition of corrosion inhibitor; CO2 saturated 3% NaCl brine 80% / hydrocarbon oil 20%, 65° C.
Description: The derivatized succinate corrosion inhibitors made according to Examples 1-5 were evaluated using bubble cell tests to assess corrosion performance using linear polarization resistance testing. The derivatized succinate corrosion inhibitors were combined with the sulfur synergist 2-mercaptoethanol in a solution so that the concentrations of corrosion inhibitor and 2-mercaptoethanol were 10% and 1% by weight, respectively. Methanol, isopropanol, water, and combinations thereof were used as solvents. Acids or bases were sometimes added either to form or neutralize salts of the inhibitors to influence their solubility. This solution was then dosed into the bubble cell at a concentration of 50 ppm, ultimately providing 5 ppm of corrosion inhibitor and 0.5 ppm of 2-mercaptoethanol. The bubble test simulates low flow areas where little or no mixing of water and oil occurs. The test was conducted using a mixed fluid composed of 80% by volume of synthetic brine composed of 3% sodium chloride and 20% of hydrocarbon oil.
The brine without inhibitor was first placed into kettles and purged with carbon dioxide for one hour resulting in carbon dioxide saturated brine. The brine was heated to 65° C., and electrodes were introduced into the de-aerated brine, followed by de-aerated oil, all of which was continually purged with carbon dioxide at 1 bar CO2 to saturate the brine for a 2 hour pre-corrode. The kettles were magnetically stirred at 100 revolutions per minute (rpm) for the duration of the test. The CO2 purge was switched to a blanket, the corrosion inhibitor solution was added, and the test timer started. Data were collected overnight for 15-hour test duration.
The corrosion rate was measured by Linear Polarization Resistance (LPR) techniques. The working electrode used was carbon steel (C1018 grade). The counter and reference electrodes were both Hastelloy. The electrodes were all cleaned and polished prior to testing. Corrosion rates were given in milli-inches per year (mpy), calculated from the current measured by LPR. Corrosion inhibition is compared to two known corrosion inhibitors: a cationic surfactant (alkylbenzyldimethylammonium chloride) and a Tall oil fatty acid (TOFA)-diethylenetriamine (DETA) imidazoline.
The bubble cell results provide a low shear screening designed for continuous application. The performance is measured as percent protection by comparing the initial corrosion rate during pre-corrode, prior to the addition of a corrosion inhibitor, to the final corrosion rate, measured 15 hours after corrosion inhibitor dosing.

[2] = Wheel box testing, corrosion inhibition persistence for batch applications; settings: 1% corrosion inhibitor active in 3% NaCl, 60° C., saturated CO2 at 1 atm, 96 hour, average of 2 runs; inhibitor in neutral form
Description: The corrosion inhibitors were tested using wheel box testing which is a screening method for measuring corrosion inhibition persistence for batch applications. Metal coupons are dip-coated in a solution of the inhibitor in neutral form (non-salt), then placed onto a wheel and immersed in corrosive solution. The wheel is rotated in the solution under desired conditions. At regular time intervals, the solution without inhibitor is replenished. At the conclusion of the test, corrosion rates are measured as a function of the mass loss of the metal coupons.

Row | Molecule | Initial corrosion rate (mpy) [1] [mpy] | Wheel-Box, % Inhibition [2] [%]
1 | 2-(carboxymethylthio)succinic acid, iso-C11-14-alkyl ester, monosodium salt [Example 7] | 160.1 | –
2 | 2-sulfosuccinic acid, iso-C11-14-alkyl ester, disodium salt [Example 6] | 186.9 | –
3 | 6,9-dioxa-3,12-diazatetradecane-1,2,13,14-tetracarboxylic acid, dioleyl ester [Example 10] | 157.2 | 42
4 | CCCCCCCC/C=C\CCCCCCCCN[C@@H](CC(=O)O)C(=O)[O-].[K+] [Example 5, N-(oleyl)aspartic acid, monopotassium salt] | 103.3 | –
5 | CCCCCCCCCCCCSC(CC(=O)O)C(=O)[O-].[Na+] (centres unmarked) [Example 8, 2-(dodecylthio)succinic acid, monosodium salt] | 137.2 | –
6 | CCCCCCCCCCCCOC(=O)CC1NCCN(CCN)C1=O (centres unmarked) [Example 9, (4-(2-aminoethyl)-3-oxo-2-piperazinyl)acetic acid, dodecyl ester] | 204.3 | –
7 | N-(2-ethylhexyl)aspartic acid, 2-ethylhexyl ester [Example 3] | 248.8 | 56
8 | N-(2-ethylhexyl)aspartic acid, C12-15-alkyl ester [Example 1] | 245.7 | –
9 | N-(oleyl)aspartic acid, 2-ethylhexyl ester [Example 4] | 213.0 | 64
10 | N-oleylaspartic acid, iso-C11-14-alkyl ester [Example 2] | 252.4 | –
11 | alkylbenzyldimethylammonium chloride [Cationic surfactant control, reference compound] | 233.4 | –
